Like-named read-outs stand apart in the source and are kept apart here.
Assays:
HL-60 cells = assay: HL-60 differentiation (nitro blue tetrazolium reduction); format: cell-based, human; conditions: for EC50: HL-60 cells into monocytes, FIG. 2, read-out: EC50, HL-60 cell differentiation
Description: The study drugs were dissolved in ethanol and the concentrations determined using UV spectrophotometry. Serial dilutions were prepared so that a range of drug concentrations could be tested without changing the final concentration of ethanol (≦0.2%) present in the cell cultures.
Human promyelocytic leukemia (HL60) cells were grown in RPMI-1640 medium containing 10% fetal bovine serum. The cells were incubated at 37° C. in the presence of 5% CO2.
HL60 cells were plated at 1.2×10^5 cells/ml. Eighteen hours after plating, cells in duplicate were treated with drug. Four days later, the cells were harvested and a nitro blue tetrazolium reduction assay was performed (Collins et al., 1979; J. Exp. Med. 149:969-974). The percentage of differentiated cells was determined by counting a total of 200 cells and recording the number that contained intracellular black-blue formazan deposits. Verification of differentiation to monocytic cells was determined by measuring phagocytic activity (data not shown).

[1] = tested on: 24-hydroxylase (24Ohase) gene promoter; assay: In vitro transcription assay (24-hydroxylase promoter luciferase reporter in ROS 17/2.8 bone cells); format: cell-based; conditions: for EC50: ROS 17/2.8 cells, 24-hydroxylase gene, FIG. 3, read-out: EC50, transcriptional activity in bone cells
Description: Transcription activity was measured in ROS 17/2.8 (bone) cells that were stably transfected with a 24-hydroxylase (24Ohase) gene promoter upstream of a luciferase reporter gene (Arbour et al., 1998). Cells were given a range of doses. Sixteen hours after dosing the cells were harvested and luciferase activities were measured using a luminometer.
RLU=relative luciferase units.

[2] = Bone calcium mobilization (serum calcium) in vitamin D-deficient rats; format: in vivo, rat; conditions: ip, 4 consecutive days, rats on 0.02% Ca diet
Description: (§1) Male, weanling Sprague-Dawley rats were placed on Diet 11 (0.47% Ca) diet+AEK oil for one week followed by Diet 11 (0.02% Ca)+AEK oil for 3 weeks. The rats were then switched to a diet containing 0.47% Ca for one week followed by two weeks on a diet containing 0.02% Ca. Dose administration began during the last week on 0.02% calcium diet. Four consecutive ip doses were given approximately 24 hours apart. Twenty-four hours after the last dose, blood was collected from the severed neck and the concentration of serum calcium determined as a measure of bone calcium mobilization. The first 10 cm of the intestine was also collected for intestinal calcium transport analysis using the everted gut sac method.

[3] = Intestinal calcium transport (everted gut sac) in vitamin D-deficient rats; format: in vivo, rat; conditions: ip, 4 consecutive days
Description: as §1

[4] = target: T1, full-length recombinant rat vitamin D receptor (Rattus norvegicus, UniProt P13053); assay: Vitamin D receptor binding (competition with [3H]-1,25(OH)2D3)
T1 construct: Full-length recombinant rat receptor was expressed in E. coli BL21 (DE3) Codon Plus RIL cells; histidine tag (C); made in house; host or cells: E. coli BL21 (DE3) Codon Plus RIL
T1 sequence (P13053 1-423): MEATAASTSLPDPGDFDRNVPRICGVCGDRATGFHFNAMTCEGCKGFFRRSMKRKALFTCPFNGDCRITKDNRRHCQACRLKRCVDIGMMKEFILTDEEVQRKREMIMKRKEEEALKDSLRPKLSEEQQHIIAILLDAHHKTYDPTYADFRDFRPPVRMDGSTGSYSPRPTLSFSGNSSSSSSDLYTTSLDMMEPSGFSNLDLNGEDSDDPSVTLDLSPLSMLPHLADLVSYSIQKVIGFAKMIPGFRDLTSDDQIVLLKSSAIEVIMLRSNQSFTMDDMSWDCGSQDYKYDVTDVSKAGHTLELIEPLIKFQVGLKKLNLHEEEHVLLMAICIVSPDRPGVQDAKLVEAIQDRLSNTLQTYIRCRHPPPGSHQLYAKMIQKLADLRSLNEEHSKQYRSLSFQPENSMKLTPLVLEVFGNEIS
Description: Full-length recombinant rat receptor was expressed in E. coli BL21 (DE3) Codon Plus RIL cells and purified to homogeneity using two different column chromatography systems. The first system was a nickel affinity resin that utilizes the C-terminal histidine tag on this protein. The protein that was eluted from this resin was further purified using ion exchange chromatography (S-Sepharose Fast Flow). Aliquots of the purified protein were quick frozen in liquid nitrogen and stored at −80° C. until use. For use in binding assays, the protein was diluted in TEDK50 (50 mM Tris, 1.5 mM EDTA, pH7.4, 5 mM DTT, 150 mM KCl) with 0.1% Chaps detergent. The receptor protein and ligand concentration were optimized such that no more than 20% of the added radiolabeled ligand was bound to the receptor.
Radiolabeled and unlabeled ligands were added to 100 mcl of the diluted protein at a final ethanol concentration of ≦10%, mixed and incubated overnight on ice to reach binding equilibrium. The following day, 100 mcl of hydroxylapatite slurry (50%) was added to each tube and mixed at 10-minute intervals for 30 minutes. The hydroxylapaptite was collected by centrifugation and then washed three times with Tris-EDTA buffer (50 mM Tris, 1.5 mM EDTA, pH 7.4) containing 0.5% Titron X-100. […] Total binding was determined from the tubes containing only radiolabeled ligand.

EC50 (HL-60 cells; Homo sapiens) [nM]	VDR binding activity relative to 1α,25-dihydroxyvitamin D3 ([4]; compared to native hormone)	Ki ([4]; full-length recombinant rat VDR, FIG. 1) [nM]	SMILES	EC50 (HL-60 cells) [nM]	EC50 [1] [nM]	bone calcium mobilization (serum calcium) ([2]; 260 pmol/day)	intestinal calcium transport ([3]; 260 pmol/day)	times less potent than 1,25(OH)2D3 on HL-60 cell differentiation (HL-60 cells; compared to 1,25(OH)2D3)	times less potent than 1,25(OH)2D3 in increasing transcription of the 24-hydroxylase gene ([1]; bone cells, compared to 1,25(OH)2D3) [times]	bone calcium mobilization (serum calcium) ([2]; 7020 pmol/day)	bone calcium mobilization (serum calcium) ([2]; 35100 pmol/day)	intestinal calcium transport ([3]; 7020 pmol/day)	intestinal calcium transport ([3]; 35100 pmol/day)
			C=C1/C(=C\C=C2/CCC[C@]3(C)[C@@H]([C@H](C)CCCC(C)(C)O)CC[C@@H]23)C[C@@H](O)C[C@@H]1O [1,25(OH)2D3, 1α,25-dihydroxyvitamin D3, reference compound]	3	0.2	increased serum calcium levels	significant increase						
30	about one-half log less active	0.08	C=C1[C@H](O)CC(=C/C=C2\CCC[C@]3(C)[C@@H](C(=C)CC)CC[C@@H]23)C[C@H]1O [MDBE 20, 2-methylene-20(21)-dehydro-19,24,25,26,27-pentanor-1α-hydroxyvitamin D3]		4			about 10 times	10	did not result in mobilization of bone calcium	no substantial effect was seen	does not promote intestinal calcium transport	does not promote intestinal calcium transport

Source: patent US20130178449A1, “2-Methylene-20(21)-Dehydro-19,24,25,26,27-Pentanor-Vitamin D Analogs” (WISCONSIN ALUMNI RESEARCH FOUNDATION, priority 2011, published 2013)
